Measurements published in patent US8883841B2, “Oncogenic ras-specific cytotoxic compound and methods of use thereof” (The Board of Regents of the University of Texas System, priority 2005, dated 2014).

How the values were obtained:
[1] = system: SKOV3; assay: Cell viability, SKOV3 ovary cancer cells; type: cell-based
[2] = system: H460 tumors; assay: In vivo antitumor activity, subcutaneous H460 tumors in nude mice; details: for suppression of growth of tumor volume in comparison with solvent / mean survival: 100 mg/kg/injection daily i.p.; for suppression of growth of tumor volume in comparison with solvent: Oncrasin-1 10 days, Oncrasin-27 3 days; for mean survival: solvent 24 days; for mean tumor volume vs solvent-treated mice: p<0.05, 5 mice per group
Description: The inventors have investigated the in vivo antitumor activity of Oncrasin compounds, such as Oncrasin-1 and Oncrasin-27, both are available at relatively larger scale. Subcutaneous tumors were established in 4- to 6-week-old female nude mice (Charles River Laboratories Inc., Wilmington, Mass.) by the inoculation of 1.5×10^6 H460 cells into the dorsal flank of each mouse. After the tumors grew to 5 mm in diameter, mice were treated with intraperitoneal injections of Oncrasin-1 (for 10 days) or Oncrasin-27 (for 3 days, because of limited availability of the compound) at a dose of 100 mg/kg/injection daily (the agents were dissolved in 0.5 mL of solvent containing 10% DMSO, 10% Cremophor EL, and 10% ethanol), or they were given intraperitoneal injections of solvent alone. The tumor volumes were calculated using the formula a×b^2×0.5, where a and b represent the larger and smaller diameters, respectively (Gu et al., 2000; Terashi et al., 2005). Mice were killed when the tumors grew to 1.5 cm in diameter. To evaluate the toxicity of treatment, blood samples were collected from the tail vein before treatment and 2 days after the last treatment, and serum alanine transaminase, aspartate transaminase, and creatinine levels were determined as described elsewhere (Gu et al., 2000; Terashi et al., 2005). Hematopoietic toxicity was monitored by counting red blood cells, white blood cells, and platelets (Gu et al., 2002; Terashi et al., 2005). The lung, heart, liver, intestine, spleen, and kidney were harvested after the mice were killed to test the toxic effects of both compounds on these organs. The histopathologic analysis was performed in the histology laboratory of the Department of Veterinary Medicine and Surgery at M. D. Anderson Cancer Center. […] The mean survivals for mice treated with solvent, Oncrasin-1, and Oncrasin-27 were 24, 32, and 34 days, respectively.

[3] = system: SNB-19; assay: NCI in-vitro testing, SNB-19 (CNS Cancer)
[4] = system: HS 578T; assay: NCI in-vitro testing, HS 578T (Breast Cancer)
[5] = system: COLO 205; assay: NCI in-vitro testing, COLO 205 (Colon Cancer)
[6] = system: HOP-92; assay: NCI in-vitro testing, HOP-92 (Non-Small Cell Lung Cancer)
[7] = system: CAKI-1; assay: NCI in-vitro testing, CAKI-1 (Renal Cancer); details: for Percent Growth: CAK1-1
[8] = system: SK-MEL-5; assay: NCI in-vitro testing, SK-MEL-5 (Melanoma)
[9] = system: UO-31; assay: NCI in-vitro testing, UO-31 (Renal Cancer)
[10] = system: NCI-H226; assay: NCI in-vitro testing, NCI-H226 (Non-Small Cell Lung Cancer)
[11] = system: OVCAR-4; assay: NCI in-vitro testing, OVCAR-4 (Ovarian Cancer)
[12] = system: NCI-H460; assay: NCI in-vitro testing, NCI-H460 (Non-Small Cell Lung Cancer)

In the case of O=Cc1cn(Cc2ccc(Cl)cc2)c2ccccc12 [Oncrasin K001, 1H-Indole-3-carboxaldehyde, 1-[(4-chlorophenyl)methyl]-(9CI)], the “IC50 (−LogM)” value [1] was 5.8 −LogM, the “suppression of growth of tumor volume in comparison with solvent” value [2] was 75.4% and the mean survival [2] was 32 days. For the same compound, the “mean tumor volume vs solvent-treated mice” value [2] was “differed significantly”.

In the case of O=Cc1cn(Cc2cccc(Cl)c2)c2ccccc12 [Oncrasin K027, 1-(3-chlorobenzyl)-1H-indole-3-carbaldehyde], the GI50 ([3]; Homo sapiens, SNB-19) was 17.6 µM, the CC50 ([3]; Homo sapiens, SNB-19, read-out: LC50) was greater than 100 µM and the TGI ([3]; SNB-19) was 5.89E−5 Molar. The “Percent Growth” value ([3]; SNB-19, Log10 Concentration −4.0 Molar) was −24%, the “Percent Growth” value ([3]; SNB-19, Log10 Concentration −5.0 Molar) was 74% and the “Percent Growth” value ([3]; SNB-19, Log10 Concentration −6.0 Molar) was 97%. The “Percent Growth” value ([3]; SNB-19, Log10 Concentration −7.0 Molar) was 97%, the “Percent Growth” value ([3]; SNB-19, Log10 Concentration −8.0 Molar) was 103% and the TGI ([4]; HS 578T) was 2.75E−6 Molar. The “Percent Growth” value ([4]; HS 578T, Log10 Concentration −4.0 Molar) was −38%, the “Percent Growth” value ([4]; HS 578T, Log10 Concentration −5.0 Molar) was 30% and the “Percent Growth” value ([4]; HS 578T, Log10 Concentration −6.0 Molar) was 91%. The “Percent Growth” value ([4]; HS 578T, Log10 Concentration −7.0 Molar) was 98%, the “Percent Growth” value ([4]; HS 578T, Log10 Concentration −8.0 Molar) was 105% and the GI50 ([4]; Homo sapiens, Hs-578T) was 4.68 µM. The CC50 ([4]; Homo sapiens, Hs-578T, read-out: LC50) was greater than 100 µM, the TGI ([5]; COLO 205) was 1.58E−5 Molar and the “Percent Growth” value ([5]; COLO 205, Log10 Concentration −4.0 Molar) was −72%. For the same compound, the “Percent Growth” value ([5]; COLO 205, Log10 Concentration −5.0 Molar) was 18%, the “Percent Growth” value ([5]; COLO 205, Log10 Concentration −6.0 Molar) was 51% and the “Percent Growth” value ([5]; COLO 205, Log10 Concentration −7.0 Molar) was 93%. The “Percent Growth” value ([5]; COLO 205, Log10 Concentration −8.0 Molar) was 88%, the GI50 ([5]; Homo sapiens, COLO 205) was 1050 nM and the CC50 ([5]; Homo sapiens, COLO 205, read-out: LC50) was 5.69 µM. For the same compound, the “Percent Growth” value ([6]; HOP-92, Log10 Concentration −4.0 Molar) was −60%, the “Percent Growth” value ([6]; HOP-92, Log10 Concentration −5.0 Molar) was 34% and the “Percent Growth” value ([6]; HOP-92, Log10 Concentration −6.0 Molar) was 89%. The “Percent Growth” value ([6]; HOP-92, Log10 Concentration −7.0 Molar) was 81%, the “Percent Growth” value ([6]; HOP-92, Log10 Concentration −8.0 Molar) was 97% and the GI50 ([6]; Homo sapiens, HOP-92) was 5.17 µM. For the same compound, the CC50 ([6]; Homo sapiens, HOP-92, read-out: LC50) was 77.8 µM, the “Percent Growth” value ([7]; Log10 Concentration −4.0 Molar) was 1% and the “Percent Growth” value ([7]; Log10 Concentration −5.0 Molar) was −47%. The “Percent Growth” value ([7]; Log10 Concentration −6.0 Molar) was −21%, the “Percent Growth” value ([7]; Log10 Concentration −7.0 Molar) was −3% and the “Percent Growth” value ([7]; Log10 Concentration −8.0 Molar) was 1%. For the same compound, the GI50 ([7]; Homo sapiens, CAKI-1) was less than 10 nM, the CC50 ([7]; Homo sapiens, CAKI-1, read-out: LC50) was greater than 100 µM and the GI50 ([8]; Homo sapiens, SK-MEL-5) was 4.97 µM. The CC50 ([8]; Homo sapiens, SK-MEL-5, read-out: LC50) was 45.5 µM, the TGI ([8]; SK-MEL-5) was 1.95E−5 Molar and the “Percent Growth” value ([8]; SK-MEL-5, Log10 Concentration −4.0 Molar) was −97%. For the same compound, the “Percent Growth” value ([8]; SK-MEL-5, Log10 Concentration −5.0 Molar) was 40%, the “Percent Growth” value ([8]; SK-MEL-5, Log10 Concentration −6.0 Molar) was 74% and the “Percent Growth” value ([8]; SK-MEL-5, Log10 Concentration −7.0 Molar) was 92%. The “Percent Growth” value ([8]; SK-MEL-5, Log10 Concentration −8.0 Molar) was 95%, the “suppression of growth of tumor volume in comparison with solvent” value [2] was 76.3% and the mean survival [2] was 34 days. For the same compound, the “mean tumor volume vs solvent-treated mice” value [2] was “differed significantly”, the GI50 ([9]; Homo sapiens, UO-31) was 1580 nM and the CC50 ([9]; Homo sapiens, UO-31, read-out: LC50) was greater than 100 µM. For the same compound, the TGI ([9]; UO-31) was 1.55E−6 Molar, the “Percent Growth” value ([9]; UO-31, Log10 Concentration −4.0 Molar) was −42% and the “Percent Growth” value ([9]; UO-31, Log10 Concentration −5.0 Molar) was 10%. The “Percent Growth” value ([9]; UO-31, Log10 Concentration −6.0 Molar) was 50%, the “Percent Growth” value ([9]; UO-31, Log10 Concentration −7.0 Molar) was 80% and the “Percent Growth” value ([9]; UO-31, Log10 Concentration −8.0 Molar) was 90%. It also gave a GI50 ([10]; Homo sapiens, NCI-H226) of less than 10 nM, a CC50 ([10]; Homo sapiens, NCI-H226, read-out: LC50) of 501 nM and a TGI ([10]; NCI-H226) of 4.46E−8 Molar. For the same compound, the “Percent Growth” value ([10]; NCI-H226, Log10 Concentration −4.0 Molar) was −65%, the “Percent Growth” value ([10]; NCI-H226, Log10 Concentration −5.0 Molar) was −59% and the “Percent Growth” value ([10]; NCI-H226, Log10 Concentration −6.0 Molar) was −62%. For the same compound, the “Percent Growth” value ([10]; NCI-H226, Log10 Concentration −7.0 Molar) was −22%, the “Percent Growth” value ([10]; NCI-H226, Log10 Concentration −8.0 Molar) was 40% and the GI50 ([11]; Homo sapiens, OVCAR-4) was 340 nM. The CC50 ([11]; Homo sapiens, OVCAR-4, read-out: LC50) was greater than 100 µM, the TGI ([11]; OVCAR-4) was 1.80E−5 Molar and the “Percent Growth” value ([11]; OVCAR-4, Log10 Concentration −4.0 Molar) was −29%. For the same compound, the “Percent Growth” value ([11]; OVCAR-4, Log10 Concentration −5.0 Molar) was 10%, the “Percent Growth” value ([11]; OVCAR-4, Log10 Concentration −6.0 Molar) was 31% and the “Percent Growth” value ([11]; OVCAR-4, Log10 Concentration −7.0 Molar) was 71%. For the same compound, the “Percent Growth” value ([11]; OVCAR-4, Log10 Concentration −8.0 Molar) was 94%, the TGI [12] was 3.79E−5 Molar and the GI50 ([12]; Homo sapiens, NCI-H460) was 88.8 nM. The CC50 ([12]; Homo sapiens, NCI-H460, read-out: LC50) was greater than 100 µM, the “Percent Growth” value ([12]; Log10 Concentration −4.0 Molar) was −9% and the “Percent Growth” value ([12]; Log10 Concentration −5.0 Molar) was 13%. The “Percent Growth” value ([12]; Log10 Concentration −6.0 Molar) was 20%, the “Percent Growth” value ([12]; Log10 Concentration −7.0 Molar) was 48% and the “Percent Growth” value ([12]; Log10 Concentration −8.0 Molar) was 79%.
